Consider three compounds from ChEMBL document CHEMBL3286360, “Tuning the antimicrobial pharmacophore to enable discovery of short lipopeptides with multiple modes of action” (Eur J Med Chem, 2014).

For series [1], the system named is Staphylococcus aureus. Kind of series: Antimicrobial activity against Staphylococcus aureus ATCC 12600 assessed as disruption of membrane integrity measured as PI dye influx at 50 ug/ml after 20 mins by fluorescence microscopy. Type of series: functional, organism-based.
Series [2] concerns Escherichia coli. Kind of series: Antimicrobial activity against Escherichia coli ATCC 25922 assessed as disruption of membrane integrity measured as PI dye influx at 250 ug/ml after 20 mins by fluorescence microscopy. The format is functional.
Another series has as its system Priestia megaterium. Briefly: Binding affinity to Bacillus megaterium pHis1525 DNA at 25 to 50 ug/ml after 30 mins by agarose gel electrophoresis.
The nature of series [3]: Cytotoxicity against human TZM-b1 cells assessed as cell death at 40 ug/ml after 2 hrs by flow cytometry (reference value: 0 to 0.20 %). The settings on record: tzm-b1, 2 h. The format is cell-based.
For another series, the system named is Candida albicans. Briefly: Antimicrobial activity against Candida albicans ATCC 14053 after 17 to 20 hrs by serial dilution method. The format is functional.
Series [4] is described as follows: Cytotoxicity in human erythrocytes assessed as hemolysis at 250 ug/ml after 1 hr relative to control. Type of series: cell-based, Erythrocyte. As to conditions: read-out: Activity.
Series [5] is described as follows: Cytotoxicity against human TZM-b1 cells assessed as survival at 40 ug/ml after 2 hrs by flow cytometry. Type of series: cell-based. The settings on record: read-out: Survival.
Series [6] is described as follows: Cytotoxicity against human TZM-b1 cells assessed as cell death at 40 ug/ml after 1 hr by flow cytometry (reference value: 0 to 0.20 %). The format is cell-based. The settings on record: tzm-b1, 1 h.
The test system of series [7] is Escherichia coli. Kind of series: Antimicrobial activity against Escherichia coli ATCC 25922 assessed as disruption of membrane integrity measured as PI dye influx at 50 ug/ml after 20 mins by fluorescence microscopy. Type of series: functional, organism-based.
For series [8], the system named is Staphylococcus aureus. Kind of series: Antimicrobial activity against Staphylococcus aureus ATCC 12600 after 17 to 20 hrs by serial dilution method. Type of series: functional.
Series [9] concerns Staphylococcus aureus. Briefly: Antimicrobial activity against Staphylococcus aureus ATCC 12600 assessed as cell death at 40 ug/ml after 1 hr by flow cytometry. Type of series: functional.
Series [10] has as its system Escherichia coli. Briefly: Antimicrobial activity against Escherichia coli ATCC 25922 after 17 to 20 hrs by serial dilution method. The format is functional.
The subject of series [11] is Staphylococcus aureus. Kind of series: Antimicrobial activity against Staphylococcus aureus ATCC 12600 assessed as disruption of membrane integrity measured as PI dye influx at 250 ug/ml after 20 mins by fluorescence microscopy. Type of series: functional, organism-based.
Series [12] is described as follows: Cytotoxicity in human erythrocytes assessed as hemolysis at 125 ug/ml after 1 hr relative to control. The settings on record: read-out: Activity. Type of series: cell-based, Erythrocyte.
A short description of series [13]: Cytotoxicity against human TZM-b1 cells assessed as cell death after 48 hrs by MTT assay. As to conditions: tzm-b1, 48 h. The format is cell-based.
The nature of series [14]: Cytotoxicity against human TZM-b1 cells assessed as cell death at 125 ug/ml after 48 hrs by MTT assay. The format is cell-based. As to conditions: tzm-b1, 48 h.
Series [15] in a line: Cytotoxicity against human TZM-b1 cells assessed as cell death at 500 ug/ml after 48 hrs by MTT assay. Type of series: cell-based. As to conditions: tzm-b1, 48 h.

Values after ≈ are worked out from the molar mass of the structure shown. Active and inactive are the calls of the source. No cut-off for these calls is given here. Where a SMILES comes first, the peptide text is derived from it. The star is where a group is joined. Decanoyl = CCCCCCCCCC(=O)*

Turning to `CCCCCCCCCC(=O)N[C@@H](CCCNC(=N)N)C(=O)N[C@H](C(=O)N[C@@H](CCCCN)C(=O)N[C@@H](Cc1c[nH]c2ccccc12)C(=O)N[C@@H](CCCCN)C(N)=O)[C@@H](C)CC` (Decanoyl-RIKWK-NH2), the outcome in the series with Staphylococcus aureus [1], in the series on Escherichia coli [2], in the series on Escherichia coli [7] and in the series with Staphylococcus aureus [11] was Active. Moreover, the outcome in the series with Priestia megaterium was inactive. Further, the Activity is recorded as 0.083% in series [3], 0.074% in series [6] and more than 95% with Staphylococcus aureus [9]. Besides, the MIC in the series with Candida albicans was more than 62.5 µg/mL; in the series with Staphylococcus aureus [8], 7.8 µg/mL (≈ 8.83 µM); with Escherichia coli [10], 15.6 µg/mL (≈ 17.7 µM). The hemolysis at 1 h, 250 ug/ml in series [4] is less than 10%. In addition, in [5], the viability at 2 h, 40 ug/ml is more than 99%.

In the case of `CCCCCCCCCC(=O)N[C@@H](CCCNC(=N)N)C(=O)N[C@@H](CCCCN)C(=O)N[C@@H](Cc1c[nH]c2ccccc12)C(=O)N[C@@H](Cc1c[nH]c2ccccc12)C(=O)N[C@@H](CCCCN)C(N)=O` (Decanoyl-RKWWK-NH2), the outcome with Staphylococcus aureus [1], with Priestia megaterium, in the series with Escherichia coli [7] and in the series on Staphylococcus aureus [11] was Active. The hemolysis at 1 h, 125 ug/ml in series [12] was less than 10%. In addition, in the series with Escherichia coli [2] (ATCC 25922, 20 min), the CC50 was determined as 115 µg/mL (≈ 120 µM). Moreover, the Activity entry in series [13] is recorded as “Toxic”; in [3] it was 0.128%; in series [6], 0.072%; in [14] it was “Toxic”; in the series on Staphylococcus aureus [9], more than 95%. Also, the results for the MIC in the series with Candida albicans, in the series with Staphylococcus aureus [8] and in the series with Escherichia coli [10] were 15.6 µg/mL (≈ 16.3 µM), 3.9 µg/mL (≈ 4.08 µM) and 3.9 µg/mL (≈ 4.08 µM), respectively. For the same compound, the viability at 2 h, 40 ug/ml in series [5] was more than 99%.

For H-RKWWK-NH2, the Activity result in series [15] is listed as “Non-toxic”. The MIC against Staphylococcus aureus [8] was 62.5 µg/mL; against Escherichia coli [10], more than 62.5 µg/mL.
